From ChEMBL document CHEMBL1201862, “PubChem BioAssay data set” (2004)
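Interpolation was linear, between the two tested concentrations surrounding the appropriate level; five concentrations were tested over 48 hours in 96-well plates. Abbreviation: GI50, concentration required for 50% inhibition of growth.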 The source made the active and inactive calls. Cut-off read from the data, not from the text of the source: active = GI50 up to about 1.1 µM and inactive = higher.

Experiments:
Test in all cases: NCI anticancer screen, dose series, 48 h
NCI-H522 = test system: NCI-H522
SR = test system: SR
LOX IMVI = test system: LOX IMVI
786-0 = test system: 786-0
CCRF-CEM = test system: CCRF-CEM
OVCAR-8 = test system: OVCAR-8
HOP-62 = test system: HOP-62
SK-OV-3 = test system: SK-OV-3
KM12 = test system: KM12
M14 = test system: M14
HCC 2998 = test system: HCC 2998
OVCAR-4 = test system: OVCAR-4
SK-MEL-5 = test system: SK-MEL-5
NCI/ADR-RES = test system: NCI/ADR-RES
UACC-62 = test system: UACC-62
OVCAR-3 = test system: OVCAR-3
CAKI-1 = test system: CAKI-1
OVCAR-5 = test system: OVCAR-5

SMILES	GI50 (NCI-H522)	GI50 (SR)	GI50 (LOX IMVI)	GI50 (786-0)	GI50 (CCRF-CEM)	GI50 (OVCAR-8)	GI50 (HOP-62)	GI50 (SK-OV-3)	GI50 (KM12)	GI50 (M14)	GI50 (HCC 2998)	GI50 (OVCAR-4)	GI50 (SK-MEL-5)	GI50 (NCI/ADR-RES)	GI50 (UACC-62)	GI50 (OVCAR-3)	GI50 (CAKI-1)	GI50 (OVCAR-5)
O=C(c1ccco1)N(C(=S)OC12CC3CC(CC(C3)C1)C2)c1ccccc1	19.9 µM (inactive)	25.7 µM (inactive)	26.7 µM (inactive)	31.2 µM (inactive)	16.9 µM (inactive)	31.3 µM (inactive)	28.2 µM (inactive)	23.4 µM (inactive)	31.2 µM (inactive)	20.9 µM (inactive)	25.1 µM (inactive)	36.1 µM (inactive)	17.7 µM (inactive)	28.6 µM (inactive)	23.4 µM (inactive)	28.1 µM (inactive)	33.3 µM (inactive)	39.7 µM (inactive)
CCC1(CC)C(=O)NN(C(=O)c2ccc(Cl)cc2)C1=O	32.1 µM (inactive)	> 100 µM (inactive)	> 100 µM (inactive)	> 100 µM (inactive)	> 100 µM (inactive)	> 100 µM (inactive)	> 100 µM (inactive)	> 100 µM (inactive)	> 100 µM (inactive)	> 100 µM (inactive)	> 100 µM (inactive)	> 100 µM (inactive)	> 100 µM (inactive)	> 100 µM (inactive)	> 100 µM (inactive)	> 100 µM (inactive)	> 100 µM (inactive)	> 100 µM (inactive)
O=C(O)C/C=C/CC(=O)O	> 100 µM (inactive)	> 100 µM (inactive)	> 100 µM (inactive)	> 100 µM (inactive)	> 100 µM (inactive)	> 100 µM (inactive)	> 100 µM (inactive)	> 100 µM (inactive)	> 100 µM (inactive)	> 100 µM (inactive)	> 100 µM (inactive)	> 100 µM (inactive)	> 100 µM (inactive)	> 100 µM (inactive)	> 100 µM (inactive)	> 100 µM (inactive)	> 100 µM (inactive)	> 100 µM (inactive)
Clc1ccc(-c2nnc3sc4nc5ccccc5c-4nn23)c(Cl)c1	26.2 µM (inactive)	44.9 µM (inactive)	44 µM (inactive)	52.6 µM (inactive)	36.5 µM (inactive)	50 µM (inactive)	67 µM (inactive)	95.1 µM (inactive)	37.5 µM (inactive)	48.3 µM (inactive)	28.7 µM (inactive)	42 µM (inactive)	42.8 µM (inactive)	34.4 µM (inactive)	33.5 µM (inactive)	29 µM (inactive)	34.7 µM (inactive)	50.6 µM (inactive)
COc1c(O)c(OC)c2oc(-c3ccc(O)c(O)c3)c(OC)c(=O)c2c1O	10.5 µM (inactive)	28.7 µM (inactive)	23.9 µM (inactive)	15 µM (inactive)	23.9 µM (inactive)	32.1 µM (inactive)	6.98 µM (inactive)	15.9 µM (inactive)	48.3 µM (inactive)	17.6 µM (inactive)	29.3 µM (inactive)	55 µM (inactive)	11.8 µM (inactive)	55.1 µM (inactive)	7.52 µM (inactive)	2.85 µM (inactive)	26.9 µM (inactive)	38.8 µM (inactive)
C=C1CC(Cn2ccc(=O)[nH]c2=O)(c2ccc(-c3ccccc3)cc2)OC1=O (stereo not drawn)	0.836 µM (active)	0.995 µM (active)	0.493 µM (active)	0.619 µM (active)	0.305 µM (active)	2.62 µM (inactive)	15.2 µM (inactive)	8.09 µM (inactive)	3.61 µM (inactive)	1.67 µM (inactive)	2.07 µM (inactive)	2.1 µM (inactive)	1.16 µM (inactive)	0.805 µM (active)	0.764 µM (active)	1.98 µM (inactive)	1.16 µM (inactive)	10 µM (inactive)
